# Values quoted from earlier work, collected in article PMC7395068, “The evolution of strategies to minimise the risk of human drug-induced liver injury (DILI) in drug discovery and development” (Archives of Toxicology, 2020).
# Like-named read-outs stand apart in the source and are kept apart here.
# Experiments:
# hu-MPCC = conditions: In vitro Assay; ref Khetani 2012; cited from earlier work
# HepG2 cells [1] = conditions: In vitro Assay; ref Tolosa 2012; cited from earlier work
# human hepatocytes = conditions: In vitro Assay; ref Xu 2008; cited from earlier work
# HepG2 cells [2] = conditions: In vitro Assay; ref Persson 2013; cited from earlier work
# [3] = ref Chen 2016; cited from earlier work
# hLiMTs = conditions: In vitro Assay; ref Proctor 2017; cited from earlier work
# [4] = system: isolated mouse liver mitochondria; conditions: In vitro Assay; ref Porceddu 2012; cited from earlier work
# [5] = ref Chen 2011; cited from earlier work
# HepG2 cells [6] = conditions: In vitro Assay; ref O'Brien 2006; cited from earlier work
# [7] = cited from earlier work
# rBsep = conditions: In vitro Assay; ref Dawson 2012; cited from earlier work
# [8] = system: HepG2 cells, primary human hepatocytes; conditions: In vitro Assay; ref Garside 2014; cited from earlier work
# Upcyte human hepatocytes = conditions: In vitro Assay; ref Tolosa 2019; cited from earlier work
# PHH = conditions: In vitro Assay; ref Proctor 2017; cited from earlier work
# RMPCC's = conditions: In vitro Assay; ref Khetani 2012; cited from earlier work
smiles,measurement,setting,value
C[C@@H]1C[C@H]2[C@@H]3CCC4=CC(=O)C=C[C@]4(C)[C@@]3(F)[C@@H](O)C[C@]2(C)[C@@]1(O)C(=O)CO [dexamethasone],HMPCC's,hu-MPCC,-VE
same,Structural based (HCI),HepG2 cells [1],-VE
same,Structural based (HCI),human hepatocytes,-VE
same,Cluser analysis,HepG2 cells [2],-VE
same,Structural based (HCI),HepG2 cells [2],-VE
same,"DILI +VE (5-8), DILI -VE (-4)",[3],-VE
same,DILI severity category,[3],Ambiguous DILI-concern
same,hLiMTs ATP <100uM,hLiMTs,-VE
same,in vitro data EC2<=1x Cmax,[4],-VE
same,in vitro data EC20<=2uM,[4],-VE
same,DILI Score (FDA) (1-8),[5],3
same,Structural based (HCI),HepG2 cells [6],-VE
same,In vivo DILI,[7]; […],-VE
same,In vivo DILI,[7]; ref Dawson 2012,-VE
same,In vivo DILI,[7]; ref Garside 2014,-VE
same,In vivo DILI,[7]; ref Gustafsson 2014,-VE
same,In vivo DILI,[7]; ref Khetani 2012,-VE
same,In vivo DILI,[7]; ref O'Brien 2006,-VE
same,In vivo DILI,[7]; ref Persson 2013,-VE
same,In vivo DILI,[7]; ref Porceddu 2012,+VE
same,In vivo DILI,[7]; ref Proctor 2017,-VE
same,In vivo DILI,[7]; ref Tolosa 2012,-VE
same,In vivo DILI,[7]; ref Tolosa 2019,-VE
same,In vivo DILI,[7]; ref Williams 2019,-VE
same,In vivo DILI,[7]; ref Xu 2008,-VE
same,Inhibition of rBsep cutoff<1& cmax u>.2,rBsep,-VE
same,Inhibition of rBsep cutoff<3,rBsep,+VE
same,Cluster 1-6 +VE Assay,[8],-VE
same,Upcytes multi donor assay 14day data,Upcyte human hepatocytes,-VE
same,PHH ATP <100uM,PHH,-VE
same,RMPCC's,RMPCC's,-VE
